# Results taken from patent publication US12594296B2, “Methods for treatment or prevention of damage resulting from radiation, trauma or shock” (priority 2012, dated 2026).
# Entries after “also recorded” stand apart in the source; their conditions may differ. Where two headings read alike, the source gives them in different places. Bridge positions count the residues as written; N and C are the ends. Square brackets hold non-standard residues; d marks the D form. Peptide text beside a SMILES is read from it. * marks the point of attachment. Ileψ(thiazoline)Cys = CC[C@H](C)[C@H](N)C1=N[C@H](C(=O)*)CS1; dOrn = NCCC[C@@H](N)C(=O)O
# Columns and labels:
# [1] = test system: A431 epidermal cells; experiment: Scratch healing of confluent A431 epidermal cell monolayer; type: cell-based; conditions: serum free DMEM; 24, 48, 72 or 96 hours
# Protocol: A431 epidermal cells were seeded into 4-well chamber slides in DMEM plus 10% FBS at a density to be confluent the next day (5×10^5/well (˜1.8 cm^2)). The following day, a scratch was made across the confluent monolayer using a sterile 10 μl tip. The medium was aspirated and the wells rinsed with DMEM to remove floating debris. Serum free DMEM was added to all wells, plus or minus PAAG (18 kD, 25% functionalization) or EGF as a positive control. Cells were treated for 24, 48, 72 or 96 hours. Cells were fixed with paraformaldehyde at the indicated times and stained with hematoxylin for better visualization. A representative scratch at time 0 is duplicated at the top of each column of treatments for comparison depicted in FIG. 13.
# [2] = test system: Clostridium perfringens; type: in vivo, chicks
# [3] = test system: small intestine of irradiated C57BL/6 mice
# [4] = test system: Acinetobacter baumaunii; experiment: Caco2 attachment of Acinetobacter baumannii; type: cell-based; conditions: pretreatment 200 μg/mL 1 h; relative to untreated cells
# Protocol: Caco2 Attachment. The gut epithelium cell line (Caco2) were grown in Eagle's Minimal Essential Media (EMEM) supplemented with 10% (v/v) fetal bovine serum and 2 mm L-glutamine. Caco2 cells were seeded at 2.5×10^5 per well in 24 well plates and incubated at 37° C. and in atmosphere of 5% CO2 for 24 hours to confluency. The cells were then rinsed twice with D-PBS and replaced with (EMEM) without fetal bovine serum for another 24 hours. Cells were rinsed with D-PBS twice and replaced with media containing no fetal bovine serum. Pretreatment of the cells with PAAG 200 ug/ml (86 kDa, 30% functionalization; 37 kDa, 22% functionalization; and 27 kDa, 21% functionalization) dissolved in media without serum for one hour was performed and the cells were then rinsed twice with D-PBS to remove any non-adherent PAAG. After rinsing, the cells were inoculated with Acinetobacter baumaunii in growth phase at a multiplicity of infection (MOI) of 1:100 for one hour. Cells were then rinsed twice with D-PBS before being lysed using 0.5% Triton X-100 in D-PBS. Supernatants were extracted and serially diluted, plated and counted for bacterial attachment.
# (§1) Pretreatment and binding studies were performed as described above for Caco2 cells with Acinetobacter attachment and Burkholderia cepacia macrophage uptake studies, with the PAAG (86 kDa and 30% functionalization) added to the indicated final concentrations.
# [5] = Irradiation biomarkers in plasma (pro-calcitonin, citrulline) (Example 10)
# [6] = test system: Burkholderia cepacia; experiment: Burkholderia cepacia macrophage uptake (U937); type: cell-based; conditions: pretreatment of U937 with 200 μg/mL; relative to untreated cells
# Protocol: Burkholderia cepacia macrophage uptake. The myeloid cell line (U937) were grown in RPMI 1640 supplemented with 10% (v/v) fetal bovine serum and 2 mm L-glutamine. Cells were seeded at 6×10^5 cells per well in 24 well plates in RPMI 1640 additionally supplemented with 0.1 ug PMA for 48 hours to activate U937 cells to be macrophage-like. Cell media was replaced with cell media without fetal bovine serum and PMA for at least 2 hours. Treatments consisted of either PAAG (200 ug/ml) treated on cells for one hour and being rinsed with D-PBS twice before inoculation or with PAAG treatment with no rinse. Upon completion of pretreatment with PAAG, cells were inoculated with Burkholderia cepacia in growth phase with an MOI of 1:10 for 45 min. After inoculation period media is supplemented with 50 ug/ml of gentamicin for another 45 min. Cells were then rinsed twice with D-PBS before being lysed using 0.5% Triton X-100 in D-PBS and serially diluted, plated and counted for bacterial uptake.
# as §1
# [7] = test system: irradiated left buccal cheek pouch (oral mucositis); experiment: Mucosal radiation dose ranging study, oral mucositis (Example 2); type: in vivo, Syrian Golden hamsters; conditions: 40 Gy to cheek pouch; 50, 100, 250 and 500 μg/mL t.i.d. into the pouch
# Protocol: In a dose ranging study, an acute dose of irradiation of 40 Gy directed to the left buccal cheek pouch of Syrian Golden hamsters and the hamsters were treated t.i.d. with 50, 100, 250 and 500 μg/mL PAAG or vehicle control directly inserted into the pouch. Mean % weight change and mucositis score were recorded. The mucosal radiation dose ranging study was performed as described above with PAAG (86 kDa and 30% functionalization) added to the indicated final concentrations. […] A comparison of the mean percent weight gain for […] dosed with vehicle control and four dosing concentrations of PAAG is shown in FIG. 4. […] The healing effect of PAAG is shown in FIG. 6, which depicts the comparison of the percentage of animals with a mucositis score of 3 or higher on a given day post irradiation for a vehicle control and three doses of PAAG.
# [8] = test system: IL-8 production in U937 cells; experiment: IL-8 production response in LPS-stimulated U937 cells (IL-8 ELISA); type: cell-based, human; conditions: 1 h pretreatment, rinsed, LPS 10 ng/ml 4 h; relative to control or lactoferrin pretreatment
# [9] = test system: bacteria in the mesenteric lymph nodes; experiment: Intestinal bacterial translocation: bacterial count in mesenteric lymph nodes (Example 9); conditions: irradiated animals, 13 Gy; FIG. 16
# [10] = test system: mice exposed to ionizing radiation; experiment: Total body irradiation study: survival and body weight (Example 1); type: in vivo; conditions: for Percent Dead Per Group: 50 mg/kg p.o. q.d. + 200 ppm in drinking water Days 1-18
# Protocol: Male mice were exposed to an acute irradiation dose on Day 0 of 0, 12.5, or 13.0 Gy at a rate of 1 Gy/min with lead shielding to the left hind limb. Starting 24 hours after irradiation, the mice were untreated or treated with PAAG or vehicle control, given with 50 mg/kg via oral gavage daily and dosed ad libitum in the drinking water (200 ppm PAAG) from days 1 to 18. The treatment groups are summarized on TABLE 1.
# The total body irradiation study was performed as described above with control vehicle or PAAG (86 kDa and 30% functionalization) administered to the mice at the indicated final concentrations. […] As shown in the Kaplan-Meier Survival Plot in FIG. 1, there was no mortality in animals that were not irradiated. […] In fact, 88% of the treated animals survived while only 19% of the untreated animals survived. […] The comparative mortality data from these experiments is tabulated on TABLE 2.
# [11] = test system: irradiated left buccal cheek pouch (oral mucositis); experiment: Oral mucositis scheduling study (Example 3); type: in vivo, hamsters; conditions: 200 ppm thrice daily Day -1 to 14 or Day 10 to 36, relative to Day -7 to 36 or Day -1 to 36
# Protocol: In a scheduling study, an acute dose of irradiation of 40 Gy directed to the left buccal cheek pouch and the hamsters were treated t.i.d. with 200 μg/mL PAAG or vehicle control directly inserted into the pouch. Schedules included PAAG treatment Day—7 to 36, Day—1 to 36, Day—1 to 14, and Day 10-36. Mean % weight change and mucositis score were recorded. Oral mucositis scheduling study was performed as described above with PAAG (86 kDa and 30% functionalization) added to the indicated final concentrations. The mean mucositis scores for a vehicle control and 200 ppm PAAG administered thrice daily from Day—7 to 36, Day—1 to 36, Day—1 to 14, or Day 10 to 36 is shown in FIG. 7. […] dosed with 200 ppm PAAG administered thrice daily from Day—1 to 14 or from Day 10 to 36 have a reduced mean mucositis score relative to mice dosed with 200 ppm PAAG thrice daily from Day—7 to 36 or from Day—1 to 36.
# [12] = test system: mice exposed to ionizing radiation; experiment: Survival after three doses of total body radiation (Example 11); type: in vivo, CB57BL/6 mice; conditions: for mortality, vehicle versus PAAG: 50 mg/kg once a day oral gavage
# Protocol: Male CB57BL/6 mice of the same weight and age were subjected to radiation doses of 12.5, 13.5 and 14.0 Gy. Animals were given the same dose of PAAG (50 mg/kg once a day) by oral gavage as in the previous study. Eighteen (18) animals were studied in each of […]: irradiated control and active PAAG at each dose. Mortality data is shown in FIG. 30 for three doses of total body radiation treated with vehicle or PAAG given via oral gavage daily.
# [13] = test system: MRSA strain MW2 (ATCC BAA-1707); experiment: Nasal epithelium/MRSA binding assay (RPMI-2650 cells); type: cell-based; conditions: pretreatment 200 or 500 ppm for 5 and 60 minutes; compared to PBS and media controls
# [14] = 13 Gy, day 4, quantitative histology, FIG. 19
compound,measurement,setting,value
EGF: EGF as a positive control [reference compound],healing of scratches,[1],faster than control
"poly (acetyl, arginyl) glucosamine [PAAG (22 kD, 36% functionalization)]",mortality relative to control,[2]; in vivo,reduced mortality with statistical significance; also recorded: reduced morality with statistical significance
same,treated animals died,[2]; in vivo,15%
"poly (acetyl, arginyl) glucosamine [PAAG (18 kD, 25% functionalization)]",healing of scratches,[1],faster than control
"poly (acetyl, arginyl) glucosamine [PAAG]",crypt degeneration,"[3]; 13 Gy, day 2, 50 mg/kg PO",mild to moderate
same,"villi height, structure and epithelium","[3]; 13 Gy, day 2, 50 mg/kg PO",retained their normal height and structure
same,crypt regeneration,"[3]; 13 Gy, day 3, 50 mg/kg PO",mild to moderate
same,villi blunting,"[3]; 13 Gy, day 3, 50 mg/kg PO",minimally blunted
same,crypt loss,"[3]; 13 Gy, day 4, 50 mg/kg PO",moderate to marked
same,crypt regeneration,"[3]; 13 Gy, day 4, 50 mg/kg PO",moderate to marked
same,loss of villous epithelium,"[3]; 13 Gy, day 4, compared with vehicle group 3",not as severe as in group 3 animals
same,GI inflammation relative to control,[3]; [14],reduced
same,crypt loss relative to control,[3]; [14],reduced
same,epithelial loss relative to control,[3]; [14],reduced
same,crypt degeneration versus vehicle-treated mice,"[3]; 13 Gy, days 2-4",less severe
same,inflammation versus vehicle-treated mice,"[3]; 13 Gy, days 2-4",reduced
same,protection from the gastrointestinal effects of total body irradiation,"[3]; 13 Gy, days 2-4",partially protected
same,small intestine histology,"[3]; mouse, in vivo, po, 50 mg/kg",essentially normal
same,percentage of bacteria bound to Caco2 cells,[4],decreases
same,citrulline reduction versus untreated irradiated animals,[5]; 13 Gy,statistically less
same,circulating plasma levels of PCT relative to controls,"[5]; 13 Gy, oral gavage once a day",reduced
same,circulating amounts of citrulline relative to control,[5]; day 3 and 4 after lethal ionizing radiation,increased
same,percentage of bacterial invasion by Burkholderia cepacia,[6],decreases
same,course of oral mucositis,[7],modulated the course of oral mucositis
same,LPS activated IL-8 response,[8],reduced
same,bacteria in the MLN (CFU/g) versus vehicle control group,[9],dramatically less
same,survival difference between treated and untreated groups,"[10]; 12.5Gy of radiation, p=0.081",No statistical difference
same,Percent Dead Per Group,"[10]; 12.5 Gy, n=16",31.25%
same,No. of Death,"[10]; 12.5 Gy, Day 5, euthanized, n=16",1
same,No. of Death,"[10]; 12.5 Gy, Day 6, euthanized, n=16",1
same,No. of Death,"[10]; 12.5 Gy, Day 7, euthanized, n=16",3
same,Percent Dead Per Group,"[10]; 13.0 Gy, based on n=15",13.33^¶ Percent
same,No. of Death,"[10]; 13.0 Gy, Day 6, found dead, n=15",1
same,No. of Death,"[10]; 13.0 Gy, Day 18, euthanized, n=15",1
same,survival difference vehicle versus PAAG,"[10]; LD 80 dose (13.0 Gy), p<0.0001",very significant
same,treated animals survived,"[10]; LD 80 dose of radiation (13.0 Gy), untreated 19%",88%
same,mean percent weight change,"[10]; compared with untreated animals, FIG. 2",no significant effect
same,Percent Dead Per Group,"[10]; no radiation, n=5",0%
same,No. of Death,"[10]; no radiation, n=5",0
same,mean mucositis score,[11],reduced
same,"mortality, vehicle versus PAAG",[12]; 12.5 Gy,numerically significant
same,"mortality, vehicle versus PAAG",[12]; 13.5 Gy,not statistically different
same,"mortality, vehicle versus PAAG",[12]; 14.0 Gy,not statistically different
same,mortality,[12]; after LD70 ionizing radiation,reduced
same,adverse effects,[12]; any dose,No adverse effects
same,binding of MRSA to nasal epithelial cells,[13],decreases
"CC[C@H](C)[C@H](N)C1=N[C@H](C(=O)N[C@@H](CC(C)C)C(=O)N[C@H](CCC(=O)O)C(=O)N[C@H](C(=O)N[C@H]2CCCCNC(=O)[C@H](CC(N)=O)NC(=O)[C@@H](CC(=O)O)NC(=O)[C@H](Cc3cnc[nH]3)NC(=O)[C@@H](Cc3ccccc3)NC(=O)[C@H]([C@@H](C)CC)NC(=O)[C@@H](CCCN)NC2=O)[C@@H](C)CC)CS1 [Bacitracin, reference compound] ({Ileψ(thiazoline)Cys}-L[dE]IK[dOrn]I[dF]H[dD]N; lactam 4-C)",mortality relative to control,"[2]; ad libitum in water, PAAG at 100 ppm",reduced mortality with statistical significance; also recorded: reduced morality with statistical significance
